# Tested on: WT SARS-CoV-2 or OTS4-5-7-8 in VeroE6/TMPRSS2 cells
# Assay type: cell-based
compound,measurement,value
CC(C)C(=O)OC[C@H]1O[C@@H](n2ccc(NO)nc2=O)[C@H](O)[C@@H]1O [molnupiravir],number of infectious virus particles in a TCID50 virus assay on adding a mutagen,reduced the number of infectious virus particles

# Reference: patent US20260124293A1 (priority 2022, published 2026)
